According to patent US4791059A, “Process for preparing lipase” (Suntory Limited, priority 1984, dated 1988):

Tested on: lipase
Assay: Inhibition and activation of lipase activity by divalent metal ions, SH reagent and surface-active agents
Assay type: biochemical, Staphylococcus capitis
Description: The effects of the divalent metal ions, SH reagent and surface-active agents on the lipase activity were evaluated by measuring the residual activities after treatment. […] The lipase activity is increased 3-fold to 5-fold by the presence of Ca^2+.
The lipase activity is more than 90% inhibited by 2 mM sodium laurylsulfate (SDS), 2 mM iodine acetamide, 0.1% Tween 20, 0.1% Tween 80, and 0.1% Triton X-100.
One milliliter of olive oil is added to a test tube (.phi.25×200 mm) containing 5 ml of a reaction mixture consisting of 25 mM of a Tris-HCl buffer (pH 8.0) and 10 mM of CaCl2, the tube is stirred vigorously with a mixer, and 0.5 ml of an enzyme solution is added to the tube. The reaction is carried out during which the tube is shaken at 300 rpm on a reciprocating shaker. The reaction is stopped on the addition of 20 ml of ethanol and the fatty acids formed are titrated with 0.05 N of an aqueous sodium hydroxide solution. The control values are likewise determined by titrating the solution obtained by first adding ethanol to a reaction mixture of the composition and then adding an enzyme solution to the same. According to a proposal by Enzyme Nomenclature; recommendations (1978) of the nomenclature committee of the International Union of Biochemistry (I.U.B.), Academic Press, a unit of lipase activity is defined as that amount of lipase required to liberate 1 μmole of fatty acids per minute under reaction conditions.

Row | Compound | inhibition of lipase activity (residual activity after treatment) (10 mM) | further results
1 | [Zn+2] [Zn^2+] | No inhibition | –
2 | CCCCCCCC/C=C\CCCCCCCC(=O)OCCOCC(OCCO)C1OCC(OCCO)C1OCCO (stereo not shown) [Tween 80] | – | inhibition of lipase activity (0.1%): more than 90%
3 | CCCCCCCCCCCCOS(=O)(=O)[O-].[Na+] [sodium laurylsulfate (SDS), sodium laurylsulfate] | – | inhibition of lipase activity (2 mM): more than 90%
4 | [Mg+2] [Mg^2+] | No inhibition | –
5 | [Fe+2] [Fe^2+] | – | inhibition of lipase activity (residual activity after treatment) (1 mM): No inhibition
6 | [Cu+2] [Cu^2+] | No inhibition | –
7 | [Mn+2] [Mn^2+] | No inhibition | –
8 | Triton X-100 | – | inhibition of lipase activity (0.1%): more than 90%
9 | [Ca+2] [Ca^2+] | No inhibition | –
10 | NC(=O)CI [iodine acetamide] | – | inhibition of lipase activity (2 mM): more than 90%
